Tests used:
[1] = biological target: T1, h-GABA-A α5β3γ2 (Homo sapiens, UniProt P18507+P31644); assay: Two-electrode voltage clamp electrophysiology in Xenopus laevis oocytes expressing GABAA receptors, modulation of GABA EC20 current; format: cell-based; design: host or cells: Xenopus laevis oocytes micro-injected with RNA transcripts of the subunits; settings: Table 1; for Efficacy (GABA) %: % modulation of GABA EC20 = 100*(Fold increase-1); for Fold increase h-GABA-A α5β3γ2 oocyte: test compound at approx. 30 fold its Ki, GABA at EC20
Experimental: Xenopus laevis oocytes at maturation stages V-VI were used for the expression of cloned mRNA encoding GABAA receptor subunits. Oocytes ready for RNA micro-injection were bought from Ecocyte, Castrop-Rauxel, Germany and stored in modified Barth's medium (composition in mM: NaCl 88, KCl 1, NaHCO32.4, HEPES 10, MgSO4 0.82, CaNO3 0.33, CaCl2 0.33, pH=7.5) at 20° C. until the experiment.
Oocytes were plated in 96-well plates to be used in an automated instrument (Robo-ocyte, MultiChannelSystems, Reutlingen, Germany) for microinjection and electrophysiological recordings. Approximately 50 nl of an aqueous solution containing the RNA transcripts for the subunits of the desired GABAA receptor was injected into each oocyte. RNA concentrations ranged between 0.3 and 16 ng/μl/subunit and were adjusted in pilot experiments to obtain GABA responses of a suitable size and a maximal effect of the reference modulator, Beta-CCM (β-CCM), a betacarboline negative allosteric modulator (NAM) at the GABAA receptor benzodiazepine (BZD) binding site or Midazolam, a benzodiazepine positive allosteric modulator (PAM) at the GABAA receptor benzodiazepine (BZD) binding site. The concentration of the γ2 subunit encoding RNA usually was 5- to 10-fold higher than the RNAs encoding the other subunits. Oocytes were kept in modified Barth's medium (composition in mM: NaCl 88, KCl 1, NaHCO3 4, HEPES 10, MgSO4 0.82, CaNO3 0.33, CaCl2) 0.33, pH=7.5) at 20° C. until the experiment.
Electrophysiological experiments were performed on days 3 to 5 after the micro-injection of mRNA. During the experiment the oocytes were constantly superfused by a solution containing (in mM) NaCl 90, KCl 1, HEPES 5, MgCl2 1, CaCl2) 1 (pH 7.4). Oocytes were impaled by two glass microelectrodes (resistance: 0.4 MΩ) which were filled with a solution containing KCl 1M+K-acetate 1.5 M and voltage-clamped to −80 mV. The recordings were performed at room temperature using the Roboocyte two-electrode voltage clamp system (Multichannelsystem). After an initial equilibration period of 1.5 min GABA was added for 1.5 min at a concentration evoking approximately 20% of a maximal current response (EC20). After another rest interval of 2.5 min GABA was again added evoking a response of similar amplitude and shape. 0.5 min after the onset of this second GABA application the test compound, at a concentration corresponding to approximatively 30 fold its Ki, was added while GABA was still present. Current traces were recorded at a digitization rate of 10 Hz during and shortly before and after the GABA application.
Each compound and concentration was tested on at least 3 oocytes. Different oocytes were used for different compound concentrations. β-CCM, a negative allosteric modulator, or Midazolam, a positive allosteric modulators, were tested on a few (3-6) oocytes on each 96-well plate for a positive control at a maximally effective. β-CCM inhibited the GABA-evoked current by approximatively 50% (Fold increase ˜0.5), while Midazolam potentiated the GABA-induced current by approximatively 150% (Fold increase ˜2.5).
For the analysis, the digitized current traces of the first and second GABA response were superimposed and, if necessary, rescaled to equal maximal amplitudes. The ratio between the two responses during the time interval of test compound application was calculated point by point. The extremum of the resulting “ratio trace” was taken as the efficacy (“Fold increase”) of the compound expressed as “% modulation of GABA EC20” (100*(Fold increase-1)).

[2] = biological target: T1, h-GABA-A α5β3γ2; assay: [3H]flumazenil competition binding assay, membranes of HEK293 cells expressing GABAA receptors; settings: displacement of [3H]-Flumazenil 0.5 nM, HEK293 cells expressing human receptors, mean of two determinations; Table 1
Experimental: The affinity of compounds at GABAA receptor subtypes was measured by competition for [3H]flumazenil (85 Ci/mmol; Roche) binding to HEK293 cells expressing rat (stably transfected) or human (transiently transfected) receptors of composition α1β3γ2, α2β3γ2, α3β3γ2 and α5β3γ2.
Cell pellets were suspended in Krebs-tris buffer (4.8 mM KCl, 1.2 mM CaCl2), 1.2 mM MgCl2, 120 mM NaCl, 15 mM Tris; pH 7.5; binding assay buffer), homogenized by polytron for ca. 20 sec on ice and centrifuged for 60 min at 4° C. (50000 g; Sorvall, rotor: SM24=20000 rpm). The cell pellets were resuspended in Krebs-tris buffer and homogenized by polytron for ca. 15 sec on ice. Protein was measured (Bradford method, Bio-Rad) and aliquots of 1 mL were prepared and stored at −80° C.
Assays were incubated to equilibrium for 1 hour at 4° C. and harvested onto GF/C uni-filters (Packard) by filtration using a Packard harvester and washing with ice-cold wash buffer (50 mM Tris; pH 7.5). After drying, filter-retained radioactivity was detected by liquid scintillation counting. Ki values were calculated using Excel-Fit (Microsoft) and are the means of two determinations.

| Efficacy (GABA) % [1] [%] | Fold increase h-GABA-A α5β3γ2 oocyte [1] | Ki [2] [nM] | Compound |
| --- | --- | --- | --- |
| 203 | 3.03 | 14.6 | Cc1ccc(-c2noc(C)c2Cn2ncc(N3CCC(C(F)(F)F)CC3)cc2=O)cn1 [Example 24, 2-[[5-methyl-3-(6-methyl-3-pyridyl)isoxazol-4-yl]methyl]-5-[4-(trifluoromethyl)-1-piperidyl]pyridazin-3-one] |
| 145 | 2.45 | 0.6 | Cc1ccc(-c2noc(C)c2Cn2ncc(N3CCOC(C)(C)C3)cc2=O)cn1 [Example 6, 5-(2,2-dimethylmorpholin-4-yl)-2-((5-methyl-3-(6-methylpyridin-3-yl)-1,2-oxazol-4-yl)methyl)pyridazin-3-one] |
| 147 | 2.47 | 5.8 | CO[C@H]1COC2(C1)CN(c1cnn(Cc3c(-c4ccc(C(F)(F)F)nc4)noc3C)c(=O)c1)C2 [Example 237, 5-[(7R)-7-methoxy-5-oxa-2-azaspiro[3.4]octan-2-yl]-2-[[5-methyl-3-[6-(trifluoromethyl)-3-pyridyl]isoxazol-4-yl]methyl]pyridazin-3-one] |
| 103 | 2.03 | 6.6 | Cc1ccc(-c2noc(C)c2Cn2ncc(N(C)C)cc2=O)cn1 [Example 45, 5-(dimethylamino)-2-((5-methyl-3-(6-methylpyridin-3-yl)isoxazol-4-yl)methyl)pyridazin-3(2H)-one] |
| 157 | 2.57 | 21.7 | Cc1ccc(-c2nocc2Cn2ncc(N3CCO[C@@H](C)C3)cc2=O)cn1 [Example 91, 5-[(2S)-2-methylmorpholin-4-yl]-2-[[3-(6-methyl-3-pyridyl)isoxazol-4-yl]methyl]pyridazin-3-one] |
| 126 | 2.26 | 45.4 | Cc1onc(-c2ccc(Cl)nc2)c1Cn1ncc(N2CCC3(CCCO3)CC2)cc1=O [Example 256, 2-((3-(6-chloropyridin-3-yl)-5-methylisoxazol-4-yl)methyl)-5-(1-oxa-8-azaspiro[4.5]decan-8-yl)pyridazin-3(2H)-one] |
| 100 | 2 | 4.3 | Cc1ccc(-c2noc(C)c2Cn2ncc(N3CC4(CCCCCO4)C3)cc2=O)nn1 [Example 316, 2-[[5-methyl-3-(6-methylpyridazin-3-yl)isoxazol-4-yl]methyl]-5-(5-oxa-2-azaspiro[3.6]decan-2-yl)pyridazin-3-one] |
| 105 | 2.05 | 39 | Cc1cc(-c2noc(C)c2Cn2ncc(N3CC4(C3)CN(C3CC3)C4)cc2=O)no1 [Example 87, 5-(2-cyclopropyl-2,6-diazaspiro[3.3]heptan-6-yl)-2-[[5-methyl-3-(5-methylisoxazol-3-yl)isoxazol-4-yl]methyl]pyridazin-3-one] |
| 105 | 2.05 | 9.4 | COC1CN(c2cnn(Cc3c(-c4ccc(C(F)(F)F)nn4)noc3C)c(=O)c2)C1 [Example 281, 5-(3-methoxyazetidin-1-yl)-2-((5-methyl-3-(6-(trifluoromethyl)pyridazin-3-yl)isoxazol-4-yl)methyl)pyridazin-3(2H)-one] |
| 133 | 2.33 | 8.6 | COc1ccc(-c2cnn(Cc3c(-c4ccc(C)nc4)noc3C)c(=O)c2)cc1F [Example 80, 5-(3-fluoro-4-methoxyphenyl)-2-((5-methyl-3-(6-methylpyridin-3-yl)isoxazol-4-yl)methyl)pyridazin-3(2H)-one] |
| 140 | 2.4 | 9.4 | Cc1ccc(-c2noc(C)c2Cn2ncc(N3CC(OC(F)F)C3)cc2=O)cn1 [Example 168, 5-[3-(difluoromethoxy)azetidin-1-yl]-2-[[5-methyl-3-(6-methyl-3-pyridyl)isoxazol-4-yl]methyl]pyridazin-3-one] |
| 167 | 2.67 | 25.6 | Cc1ccc(-c2nocc2Cn2ncc(N3CCO[C@H](C)C3)cc2=O)cn1 [Example 92, 5-[(2R)-2-methylmorpholin-4-yl]-2-[[3-(6-methyl-3-pyridyl)isoxazol-4-yl]methyl]pyridazin-3-one] |
| 80 | 1.8 | 3 | Cc1ccc(-c2noc(C)c2Cn2ncc(N3CC4(C[C@@H](OC(F)F)CO4)C3)cc2=O)nn1 [Example 242, 5-[(7R)-7-(difluoromethoxy)-5-oxa-2-azaspiro[3.4]octan-2-yl]-2-[[5-methyl-3-(6-methylpyridazin-3-yl)isoxazol-4-yl]methyl]pyridazin-3-one] |
| 107 | 2.07 | 16 | Cc1cc(-c2noc(C)c2Cn2ncc(N3CC(OCC4CC4)C3)cc2=O)no1 [Example 141, 5-[3-(cyclopropylmethoxy)azetidin-1-yl]-2-[[5-methyl-3-(5-methylisoxazol-3-yl)isoxazol-4-yl]methyl]pyridazin-3-one] |
| 107 | 2.07 | 2.2 | CCc1nccn1C1CCN(c2cnn(Cc3c(-c4ccc(C)nc4)noc3C)c(=O)c2)CC1 [Example 109, 5-[4-(2-ethylimidazol-1-yl)-1-piperidyl]-2-[[5-methyl-3-(6-methyl-3-pyridyl)isoxazol-4-yl]methyl]pyridazin-3-one] |
| 166 | 2.66 | 3.2 | Cc1ccc(-c2noc(C)c2Cn2ncc(N3CCOCC3)cc2=O)cn1 [Example 22, 2-[[5-methyl-3-(6-methyl-3-pyridyl)isoxazol-4-yl]methyl]-5-morpholino-pyridazin-3-one] |
| 95 | 1.95 | 7.2 | Cc1ccc(-c2noc(C)c2Cn2ncc(N3CC4(C3)CC(F)(F)CO4)cc2=O)cn1 [Example 193, 5-(7,7-difluoro-5-oxa-2-azaspiro[3.4]octan-2-yl)-2-[[5-methyl-3-(6-methyl-3-pyridyl)isoxazol-4-yl]methyl]pyridazin-3-one] |
| 113 | 2.13 | 34 | Cc1ccc(-c2noc(C)c2Cn2ncc(-c3cnn(CC(C)C)c3)cc2=O)cn1 [Example 172, 5-(1-isobutylpyrazol-4-yl)-2-[[5-methyl-3-(6-methyl-3-pyridyl)isoxazol-4-yl]methyl]pyridazin-3-one] |

Reference: patent US11840528B2 (Hoffmann-La Roche Inc., priority 2018, dated 2023)
